Assay [1] has as its system Saccharomyces cerevisiae. The experiment in a line: DNA damaging activity against DNA repair-deficient yeast rad 52 assessed as drug level required to produce 12 mm zone of inhibition. The class given is functional.
For assay [2], the system named is Saccharomyces cerevisiae. Kind of assay: DNA damaging activity against DNA repair-deficient yeast rad 52Y assessed as drug level required to produce 12 mm zone of inhibition. It counts as functional.
Assay [3] deals with Saccharomyces cerevisiae. The experiment in a line: DNA damaging activity against DNA repair-deficient yeast rad 6 assessed as drug level required to produce 12 mm zone of inhibition. It counts as functional.
In assay [4] the test system is Saccharomyces cerevisiae. Kind of assay: DNA damaging activity against DNA repair-proficient yeast RAD+ assessed as drug level required to produce 12 mm zone of inhibition. The class given is functional.
The next assay deals with Vero. The experiment in a line: Cytotoxicity against african green monkey Vero cells after 7 days by XTT assay. The class given is cell-based. The settings on record: Chlorocebus sabaeus, 168 h. (In general: Tetrazolium dyes change colour on reduction, which living cells bring about.)

Consider three compounds from ChEMBL document CHEMBL1149059, “Biological activity of some coumarins from Sri Lankan Rutaceae” (J Nat Prod, 1994).

Converted amounts (≈) assume the structure as drawn.

Usually IC50 stands for the point on the concentration scale where inhibition reaches its midpoint. In the case of `CC1(C)C=Cc2c(ccc3ccc(=O)oc23)O1` [SESALIN], the IC12 in the assay on Saccharomyces cerevisiae [1] is 33 µg/mL; in the assay with Saccharomyces cerevisiae [2], 87 µg/mL; in the assay with Saccharomyces cerevisiae [3] it was 480 µg/mL; with Saccharomyces cerevisiae [4], 220 µg/mL. Besides, the 50% inhibitory concentration (IC50) with Vero was found to be 12 µg/mL (≈ 52.6 µM).

As for `CC[C@@]1(O)C(=O)OCc2c1cc1n(c2=O)Cc2cc3ccccc3nc2-1` [CAMPTOTHECIN], the results for the IC12 in the assay with Saccharomyces cerevisiae [1], with Saccharomyces cerevisiae [3] and with Saccharomyces cerevisiae [4] were 0.6 µg/mL, 8.7 µg/mL and 110 µg/mL, respectively. Also, in the assay on Vero, the half-inhibitory concentration (IC50) is 0.02 µg/mL (≈ 0.0574 µM).

In the case of `CC1(C)C=Cc2cc3ccc(=O)oc3cc2O1` [XANTHYLETIN], the IC12 in the assay on Saccharomyces cerevisiae [1] turned out to be 52 µg/mL; with Saccharomyces cerevisiae [2], 87 µg/mL; in the assay with Saccharomyces cerevisiae [3] it was 318 µg/mL; in the assay with Saccharomyces cerevisiae [4], 21 µg/mL. The same compound came in with an IC50 in the assay with Vero of over 20 µg/mL.
